Measured values as given in the supplement of paper PMC11208160.
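Further: IS621 bridge recombinase in Escherichia coli cells against a fixed T5 target plasmid.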

Assay: recombinant UMI read abundance after kanamycin selection (control-corrected) (log10(CPM+1)); higher = more efficient recombination; extreme values may be limits of the assay; sequences stand for … in AGTGCAGAGAAAATCGGCCAGTTTTCTCTGCCTGCAGTCCGCATGCCGTGGGACCCCTTGGGTTCTAACCTGTTGCCTAGATTTATGCAGCGGACTGCCTTTCTCCCAAAGTGATAAACCGG…AGGTTGGTTTCACT; site = the 11-nt donor
Method: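 Pooled E. coli donor-specificity screen for the IS621 bridge recombinase. Each library member carries a reprogrammed 11-nt donor and a full-length LE bridge RNA expressed in cis from the natural promoter, with a paired donor-binding loop (8-nt LDG + 4-nt RDG) and a target-binding loop fixed to T5. It is co-electroporated with a T5 target plasmid; recombinase is induced with 0.07 mM IPTG and recombinants are selected on kanamycin. UMIs are counted as CPM, averaged over two biological replicates and corrected by the unselected control. Molecule = full bridge RNA written as DNA, built from the T5 scaffold: LDG = donor specificity nt 1-8, RDG = reverse complement of nt 8-11.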
For “ACTAAAACATGGACCGGTTTTCCCGGTAATCCGTATTTGAG (site ACTACAACTCT)”, the “recombinant UMI read abundance (log10)” value was 0.0124.
For “ACTAAAACATGGACCGGTTTTCCCGGTAATCCGTATTTGAG (site ACTAGAACTCT)”, the “recombinant UMI read abundance (log10)” value was 0.267.
For “ACTAAAACATGGACCGGTTTTCCCGGTAATCCGTATTTGAG (site ACTATAACTCT)”, the “recombinant UMI read abundance (log10)” value was 0.376.
With “ACTAAAGCATGGACCGGTTTTCCCGGTAATCCGTATTTGAT (site ACTAAAGCTAT)” the “recombinant UMI read abundance (log10)” value was 2.22.
In the case of “ACTAAAGCATGGACCGGTTTTCCCGGTAATCCGTATTTGAT (site CCTAAAGCTAT)”, the “recombinant UMI read abundance (log10)” value is reported as 0.
For “ACTAAAGCATGGACCGGTTTTCCCGGTAATCCGTATTTGAT (site GCTAAAGCTAT)”, the “recombinant UMI read abundance (log10)” value was 0.0031.
With “ACTAAAGCATGGACCGGTTTTCCCGGTAATCCGTATTTGAT (site TCTAAAGCTAT)” the “recombinant UMI read abundance (log10)” value was 0.855.
In the case of “ACTACACCATGGACCGGTTTTCCCGGTAATCCGTATTTGGT (site ACTACACCTAC)”, the “recombinant UMI read abundance (log10)” value is reported as 0.
In the case of “ACTACCTCATGGACCGGTTTTCCCGGTAATCCGTATTTGTT (site ACTACCTCTAA)”, the “recombinant UMI read abundance (log10)” value is reported as 1.19.
In the case of “ACTACTGCATGGACCGGTTTTCCCGGTAATCCGTATTTGCC (site ACTACTGCTGG)”, the “recombinant UMI read abundance (log10)” value is reported as 1.54.
In the case of “ACTACTGCATGGACCGGTTTTCCCGGTAATCCGTATTTGCC (site CCTACTGCTGG)”, the “recombinant UMI read abundance (log10)” value is reported as 1.45.
With “ACTACTGCATGGACCGGTTTTCCCGGTAATCCGTATTTGCC (site GCTACTGCTGG)” the “recombinant UMI read abundance (log10)” value was 0.946.
For “ACTACTGCATGGACCGGTTTTCCCGGTAATCCGTATTTGCC (site TCTACTGCTGG)”, the “recombinant UMI read abundance (log10)” value was 1.03.
With “ACTAGACCATGGACCGGTTTTCCCGGTAATCCGTATTTGAG (site ACTAGAACTCT)” the “recombinant UMI read abundance (log10)” value was 0.103.
In the case of “ACTAGACCATGGACCGGTTTTCCCGGTAATCCGTATTTGAG (site ACTAGACCTCT)”, the “recombinant UMI read abundance (log10)” value is reported as 0.0176.
For “ACTAGACCATGGACCGGTTTTCCCGGTAATCCGTATTTGAG (site ACTAGAGCTCT)”, the “recombinant UMI read abundance (log10)” value was 0.0203.
For “ACTAGACCATGGACCGGTTTTCCCGGTAATCCGTATTTGAG (site ACTAGATCTCT)”, the “recombinant UMI read abundance (log10)” value was 1.02.
With “ACTAGAGCATGGACCGGTTTTCCCGGTAATCCGTATTTGGT (site ACTAGAGCTAC)” the “recombinant UMI read abundance (log10)” value was 1.72.
For “ACTAGAGCATGGACCGGTTTTCCCGGTAATCCGTATTTGGT (site ACTAGCGCTAC)”, the “recombinant UMI read abundance (log10)” value was 0.398.
With “ACTAGAGCATGGACCGGTTTTCCCGGTAATCCGTATTTGGT (site ACTAGGGCTAC)” the “recombinant UMI read abundance (log10)” value was 0.647.
For “ACTAGAGCATGGACCGGTTTTCCCGGTAATCCGTATTTGGT (site ACTAGTGCTAC)”, the “recombinant UMI read abundance (log10)” value was 0.4.
For “ACTAGTACATGGACCGGTTTTCCCGGTAATCCGTATTTGAC (site ACTAGTACTGT)”, the “recombinant UMI read abundance (log10)” value was 2.14.
For “ACTAGTCCATGGACCGGTTTTCCCGGTAATCCGTATTTGGT (site ACTAGTACTAC)”, the “recombinant UMI read abundance (log10)” value was 0.0112.
With “ACTAGTCCATGGACCGGTTTTCCCGGTAATCCGTATTTGGT (site ACTAGTCCTAC)” the “recombinant UMI read abundance (log10)” value was 0.00473.
In the case of “ACTAGTCCATGGACCGGTTTTCCCGGTAATCCGTATTTGGT (site ACTAGTGCTAC)”, the “recombinant UMI read abundance (log10)” value is reported as 0.00689.
With “ACTAGTCCATGGACCGGTTTTCCCGGTAATCCGTATTTGGT (site ACTAGTTCTAC)” the “recombinant UMI read abundance (log10)” value was 0.244.
For “ACTAGTGCATGGACCGGTTTTCCCGGTAATCCGTATTTGGC (site ACTAGTGCTAC)”, the “recombinant UMI read abundance (log10)” value was 0.0845.
In the case of “ACTAGTGCATGGACCGGTTTTCCCGGTAATCCGTATTTGGC (site ACTAGTGCTCC)”, the “recombinant UMI read abundance (log10)” value is reported as 0.0166.
With “ACTAGTGCATGGACCGGTTTTCCCGGTAATCCGTATTTGGC (site ACTAGTGCTGC)” the “recombinant UMI read abundance (log10)” value was 2.6.
For “ACTAGTGCATGGACCGGTTTTCCCGGTAATCCGTATTTGGC (site ACTAGTGCTTC)”, the “recombinant UMI read abundance (log10)” value was 0.32.
For “ACTAGTGCATGGACCGGTTTTCCCGGTAATCCGTATTTGGT (site AATAGTGCTAC)”, the “recombinant UMI read abundance (log10)” value was 0.282.
For “ACTAGTGCATGGACCGGTTTTCCCGGTAATCCGTATTTGGT (site ACAAGTGCTAC)”, the “recombinant UMI read abundance (log10)” value was 0.762.
In the case of “ACTAGTGCATGGACCGGTTTTCCCGGTAATCCGTATTTGGT (site ACCAGTGCTAC)”, the “recombinant UMI read abundance (log10)” value is reported as 1.02.
With “ACTAGTGCATGGACCGGTTTTCCCGGTAATCCGTATTTGGT (site ACGAGTGCTAC)” the “recombinant UMI read abundance (log10)” value was 0.586.
In the case of “ACTAGTGCATGGACCGGTTTTCCCGGTAATCCGTATTTGGT (site ACTAATGCTAC)”, the “recombinant UMI read abundance (log10)” value is reported as 0.409.
In the case of “ACTAGTGCATGGACCGGTTTTCCCGGTAATCCGTATTTGGT (site ACTACTGCTAC)”, the “recombinant UMI read abundance (log10)” value is reported as 0.285.
In the case of “ACTAGTGCATGGACCGGTTTTCCCGGTAATCCGTATTTGGT (site ACTAGAGCTAC)”, the “recombinant UMI read abundance (log10)” value is reported as 1.08.
For “ACTAGTGCATGGACCGGTTTTCCCGGTAATCCGTATTTGGT (site ACTAGCGCTAC)”, the “recombinant UMI read abundance (log10)” value was 0.00815.
With “ACTAGTGCATGGACCGGTTTTCCCGGTAATCCGTATTTGGT (site ACTAGGGCTAC)” the “recombinant UMI read abundance (log10)” value was 0.0226.
In the case of “ACTAGTGCATGGACCGGTTTTCCCGGTAATCCGTATTTGGT (site ACTAGTACTAC)”, the “recombinant UMI read abundance (log10)” value is reported as 0.998.
With “ACTAGTGCATGGACCGGTTTTCCCGGTAATCCGTATTTGGT (site ACTAGTCCTAC)” the “recombinant UMI read abundance (log10)” value was 0.0182.
For “ACTAGTGCATGGACCGGTTTTCCCGGTAATCCGTATTTGGT (site ACTAGTGCTAA)”, the “recombinant UMI read abundance (log10)” value was 0.00318.
With “ACTAGTGCATGGACCGGTTTTCCCGGTAATCCGTATTTGGT (site ACTAGTGCTAC)” the “recombinant UMI read abundance (log10)” value was 1.55.
For “ACTAGTGCATGGACCGGTTTTCCCGGTAATCCGTATTTGGT (site ACTAGTGCTAG)”, the “recombinant UMI read abundance (log10)” value was 0.699.
With “ACTAGTGCATGGACCGGTTTTCCCGGTAATCCGTATTTGGT (site ACTAGTGCTAT)” the “recombinant UMI read abundance (log10)” value was 1.2.
In the case of “ACTAGTGCATGGACCGGTTTTCCCGGTAATCCGTATTTGGT (site ACTAGTGCTCC)”, the “recombinant UMI read abundance (log10)” value is reported as 0.0239.
With “ACTAGTGCATGGACCGGTTTTCCCGGTAATCCGTATTTGGT (site ACTAGTGCTGC)” the “recombinant UMI read abundance (log10)” value was 0.
In the case of “ACTAGTGCATGGACCGGTTTTCCCGGTAATCCGTATTTGGT (site ACTAGTGCTTC)”, the “recombinant UMI read abundance (log10)” value is reported as 0.0165.
In the case of “ACTAGTGCATGGACCGGTTTTCCCGGTAATCCGTATTTGGT (site ACTAGTTCTAC)”, the “recombinant UMI read abundance (log10)” value is reported as 0.264.
For “ACTAGTGCATGGACCGGTTTTCCCGGTAATCCGTATTTGGT (site ACTATTGCTAC)”, the “recombinant UMI read abundance (log10)” value was 0.975.
In the case of “ACTAGTGCATGGACCGGTTTTCCCGGTAATCCGTATTTGGT (site ACTCGTGCTAC)”, the “recombinant UMI read abundance (log10)” value is reported as 0.265.
In the case of “ACTAGTGCATGGACCGGTTTTCCCGGTAATCCGTATTTGGT (site ACTGGTGCTAC)”, the “recombinant UMI read abundance (log10)” value is reported as 0.583.
In the case of “ACTAGTGCATGGACCGGTTTTCCCGGTAATCCGTATTTGGT (site ACTTGTGCTAC)”, the “recombinant UMI read abundance (log10)” value is reported as 0.26.
With “ACTAGTGCATGGACCGGTTTTCCCGGTAATCCGTATTTGGT (site AGTAGTGCTAC)” the “recombinant UMI read abundance (log10)” value was 0.424.
With “ACTAGTGCATGGACCGGTTTTCCCGGTAATCCGTATTTGGT (site ATTAGTGCTAC)” the “recombinant UMI read abundance (log10)” value was 1.01.
With “ACTAGTGCATGGACCGGTTTTCCCGGTAATCCGTATTTGGT (site CCTAGTGCTAC)” the “recombinant UMI read abundance (log10)” value was 0.821.
With “ACTAGTGCATGGACCGGTTTTCCCGGTAATCCGTATTTGGT (site GCTAGTGCTAC)” the “recombinant UMI read abundance (log10)” value was 0.338.
